The source of these data is patent US20250108119A1, “NOVEL STEROID PAYLOADS, STEROID LINKERS, ADCs CONTAINING AND USE THEREOF” (IMMUNEXT, INC., priority 2021, published 2025).

Entries after “also recorded” stand apart in the source; their conditions may differ.

The subject of one test is human PBMC. As to the kind of experiment: Cytokine production (IL-1β, IL-6) at 24 hr by human PBMC incubated with 1 ng/mL LPS. The class given is cell-based. Conditions: free steroid payloads, serial dilutions, 1 ng/mL LPS, 24 hr. The protocol: FIG. 51: INX-SM-3, INX-SM-4, and INX-SM-1 inhibit IL-1β (left) and IL-6 (right) production. Cytokine levels were measured at 24 hr for human PBMCS incubated with 1 ng/mL LPS and serial dilutions (1000-1 nM) of steroid payloads, with the no treatment control plotted on the log-scale x-axis at <1 nM; n=1 donor, standard deviation plotted from technical duplicates.
FIG. 52: INX-SM-1, INX-SM-3, INX-SM-4 and INX-SM-6 inhibit IL-1β production. Cytokine levels measured at 24 hr for human PBMCS incubated with 1 ng/ml LPS and serial dilutions (1000-1 nM) of steroid payloads, with the no treatment control plotted on the log-scale x-axis at <1 nM; n=1 donor, standard deviation plotted from technical duplicates.
FIG. 53: INX-SM-9, INX-SM-31 and INX-SM-35 inhibit IL-1β (top) and IL-6 (bottom) production. Cytokine levels measured at 24 hr for human PBMCS incubated with 1 ng/mL LPS and serial dilutions (1000-0.2 nM) of steroid payloads, with the no treatment control plotted on the log-scale x-axis at <0.2 nM; n=2 donors-representative donor shown. Standard deviation plotted from technical duplicates.
FIG. 54: INX-SM-32 inhibits IL-1β (top) and IL-6 (bottom) production. Cytokine levels measured at 24 hr for human PBMCS incubated with 1 ng/mL LPS and serial dilutions (500-1 nM) of steroid payloads, with the no treatment control plotted on the log-scale x-axis at <1 nM; n=2. Representative donor shown. Standard deviation plotted from technical duplicates.
Cytokine levels measured at 24 hr for human PBMCS incubated with 1 ng/ml LPS and serial dilutions (1000-0.5 nM) of steroid payloads, with the no treatment control plotted on the log-scale x-axis at <0.5 nM; n=1 donor, standard deviation plotted from technical duplicates.
FIG. 56: INX-SM-2 and INX-SM-7 show inhibition in IL-1β. Average Cytokine levels measured at 24 hr for human PBMCS incubated with 1 ng/ml LPS and serial dilutions (1000-0.16 nM) of steroid payloads, with the no treatment control plotted on the log-scale x-axis at <0.16 nM; n=1, standard deviation plotted from technical duplicates. […]
Average cytokine levels measured at 24 hr for human PBMC incubated with 1 ng/ml LPS and serial dilutions (100-0.032 nM) of glucocorticoid payloads; n=1, mean of technical duplicates.
Average cytokine levels measured at 24 hr for human PBMC incubated with 1 ng/mL LPS and serial dilutions (1000-0.32 nM) of glucocorticoid payloads; n=1, mean of technical duplicates.
Cytokine levels measured at 24 hr for human PBMC incubated with 1 ng/mL LPS and serial dilutions (1000-0.5 nM) of steroid payloads, with the no treatment control plotted on the log-scale x-axis at <0.5 nM; n=1 donor, mean of technical duplicates plotted.
Average cytokine levels for A. hull-1β B. huIL-6 measured at 24 hr for human PBMC incubated with 1 ng/mL LPS and serial dilutions (1000-0.16 nM) of conjugated steroid linker payloads, with the no treatment control plotted on the log-scale x-axis at <0.16 nM; n=1, standard deviation plotted from technical duplicates. Values above the ULOQ (12,500 pg/mL for IL-1b and 150,000 pg/mL for IL-6) were plotted as the extrapolated value.
Average cytokine levels for IL-1β measured at 24 hr for human PBMC incubated with 1 ng/mL LPS and serial dilutions (1000-0.16 nM) of conjugated steroid linker payloads, with the no treatment control plotted on the log-scale x-axis at <0.16 nM; n=1, mean plotted of technical duplicates
Average cytokine levels for IL-1β measured at 24 hr for human PBMC incubated with 1 ng/mL LPS and serial dilutions (1000-0.16 nM) of conjugated steroid linker payloads, with the no treatment control plotted on the log-scale x-axis at <0.16 nM; n=1, mean plotted of technical duplicates.
FIG. 66: Analogs of INX V are potent relative to INX231J. […]

Test [1] relates to LPS stimulated human PBMCs. As to the kind of experiment: LPS stimulated human PBMC, IL-1β and IL-6 ELISA. The test is classed as cell-based. Conditions: for inhibition of IL-1β and IL-6: Experiment 12: free payloads 1000-0.15 nM. The protocol: The potency of novel steroids was assessed in a model of LPS stimulated human peripheral blood mononuclear cells (PBMCS). Stimulated PBMCs in this assay produce multiple pro-inflammatory cytokines1.
In all the following experiments, human PBMC, isolated from 1-2 healthy donors per study, were stimulated with LPS to induce cytokine production.
LPS was added either immediately after addition of free payload, or in the case of conjugates, four hours after addition of the conjugate.
Cells were plated in flat bottom 96 well plates at a final concentration of 150,000 cells/well, with technical duplicates for each condition.
Test agents were serially diluted in the assay media and added to a final concentration of 1,000 nM-1 nM or 0.2 nM depending on the assay or as a no treatment control.
LPS stimulation was added to a final concentration of 1 ng/ml.
Human IL-1β and IL-6 ELISA kits were used on supernatants according to vendor protocols. All graphs were prepared with GraphPad (Prism).
In general terms: An ELISA detects its analyte on a solid surface through an enzyme-linked reagent.

Where [2] appears, read: Experiment 3: free payload 1000-0.2 nM, 24 hr, n=2 donors.

As to `C[C@]12C=CC(=O)C=C1CC[C@@H]1[C@@H]2[C@@H](O)C[C@@]2(C)[C@H]1C[C@H]1CN(Cc3ccc(CC45CC(N)(C4)C5)cc3)C[C@]12C(=O)CO` [INX-SM-17, (6aR,6bS,7S,8aS,8bS,11aR,12aS,12bS)-10-(4-((3-aminobicyclo[1.1.1]pentan-1-yl)methyl)benzyl)-7-hydroxy-8b-(2-hydroxyacetyl)-6a,8a-dimethyl-1,6a,6b,7,8,8a,8b,9,10,11,11a,12,12a,12b-tetradecahydronaphtho[2′,1′:4,5]indeno[1,2-c]pyrrol-4 (2H)-one 2,2,2-trifluoroacetate], the “inhibition of IL-1β production” value in the test on human PBMC was “weakly inhibits”. The “inhibition of IL-1β and IL-6” value in test [1] is on record as “only weakly inhibit IL-1β”.
As for `C[C@]12C=CC(=O)C=C1[C@@H](F)C[C@H]1[C@@H]3C[C@H]4O[C@@H](c5ccc(CC6CC7(CC(N)C7)C6)cc5)O[C@@]4(C(=O)CO)[C@@]3(C)C[C@H](O)[C@@]12F` (stereo partly drawn) [INX-SM-25, (2S,6aS,6bR,7S,8aS,8bS,10R,11aR,12aS,12bS)-10-(4-((6-aminospiro[3.3]heptan-2-yl)methyl)phenyl)-2,6b-difluoro-7-hydroxy-8b-(2-hydroxyacetyl)-6a,8a-dimethyl-1,2,6a,6b,7,8,8a,8b,11a,12,12a,12b-dodecahydro-4H-naphtho[2′,1′:4,5]indeno[1,2-d][1,3]dioxol-4-one], the “inhibition of IL-1β production” value with human PBMC is reported as “robust inhibition”; in test [1] (Experiment 8: free payload 1000-0.5 nM), “robust inhibition in IL-1B production”.
On to `C[C@]12C=CC(=O)C=C1CC[C@@H]1[C@@H]2[C@@H](O)C[C@@]2(C)[C@H]1C[C@H]1O[C@@H](c3ccc(CC4COC5(CNC5)C4)cc3)O[C@]12C(=O)CO` (stereo partly drawn) [INX-SM-31, (6aR,6bS,7S,8aS,8bS,11aR,12aS,12bS)-10-(4-((5-oxa-2-azaspiro[3.4]octan-7-yl)methyl)phenyl)-7-hydroxy-8b-(2-hydroxyacetyl)-6a,8a-dimethyl-1,2,6a,6b,7,8,8a,8b,11a,12,12a,12b-dodecahydro-4H-naphtho[2′,1′:4,5]indeno[1,2-d][1,3]dioxol-4-one], for which, in the test with human PBMC, the “inhibition of IL-1β production” value is “inhibit” and the “inhibition of IL-6 production” value was “inhibit”. In addition, the “potency of free payloads (conclusions)” value in test [1] was “lowest potency among the R stereoisomers of the series”. Besides, the “inhibition of IL-1β production” value in test [1] (setting [2]) is “dose dependent inhibition in IL-1β production; also recorded: the least potent compound among these compounds tested”.
On to `C[C@]12C=CC(=O)C=C1CC[C@@H]1[C@@H]2[C@@H](O)C[C@@]2(C)[C@H]1C[C@H]1O[C@@H](c3ccc(CC4CC5(CC(N)C5)C4)cc3)O[C@]12C(=O)CO` (stereo partly drawn) [INX-SM-32, (6aR,6bS,7S,8aS,8bS,10R,11aR,12aS,12bS)-10-(4-((6-aminospiro[3.3]heptan-2-yl)methyl)phenyl)-7-hydroxy-8b-(2-hydroxyacetyl)-6a,8a-dimethyl-1,2,6a,6b,7,8,8a,8b,11a,12,12a,12b-dodecahydro-4H-naphtho[2′,1′:4,5]indeno[1,2-d][1,3]dioxol-4-one], for which, in the test with human PBMC, the “inhibition of IL-1β production” value is on record as “inhibits” and the “inhibition of IL-6 production” value is recorded as “inhibits”. In addition, in test [1] (Experiment 4: free payload 500-1 nM, 24 hr, n=2), the “inhibition of IL-1β and IL-6 production” value was “dose dependent inhibition in IL-1β and IL-6 production”.
As for `C[C@]12C=CC(=O)C=C1CC[C@@H]1[C@@H]2[C@@H](O)C[C@@]2(C)[C@H]1C[C@H]1O[C@@H](c3ccc(CC4(N)COC4)cc3)O[C@]12C(=O)CO` [INX-SM-33, (6aR,6bS,7S,8aS,8bS,10R,11aR,12aS,12bS)-10-(4-((3-aminooxetan-3-yl)methyl)phenyl)-7-hydroxy-8b-(2-hydroxyacetyl)-6a,8a-dimethyl-1,2,6a,6b,7,8,8a,8b,11a,12,12a,12b-dodeca hydro-4H-naphtho[2′,1′:4,5]indeno[1,2-d][1,3]dioxol-4-one], in the test on human PBMC, the “inhibition of IL-1β production” value was “modest inhibition” and the “inhibition of IL-6 production” value was “modest inhibition”. Besides, in test [1], the “potency of free payloads (conclusions)” value is given as “lowest potency among the R stereoisomers of the series”. In test [1] (Experiment 5: free payload 1000-0.5 nM, 24 hr), the “inhibition of IL-1β and IL-6 production” value is “modest inhibition of cytokine production”.
As for `C[C@]12C=CC(=O)C=C1CC[C@@H]1[C@@H]2[C@@H](O)C[C@@]2(C)[C@H]1C[C@H]1CN(c3ccc(CC45CC(N)(C4)C5)cc3)C[C@]12C(=O)CO` [INX-SM-34, (6aR,6bS,7S,8aS,8bS,11aR,12aS,12bS)-10-(4-((3-aminobicyclo[1.1.1]pentan-1-yl)methyl)phenyl)-7-hydroxy-8b-(2-hydroxyacetyl)-6a,8a-dimethyl-1,6a,6b,7,8,8a,8b,9,10,11,11a,12,12a,12b-tetradecahydronaphtho[2′,1′:4,5]indeno[1,2-c]pyrrol-4 (2H)-one 2,2,2-trifluoroacetate], in the test on human PBMC, the “inhibition of IL-1β production” value is recorded as “weakly inhibit” and the “inhibition of IL-6 production” value is on record as “weakly inhibit”. Moreover, in test [1], the “inhibition of IL-1β and IL-6” value was “weakly inhibit IL-1β and IL-6”.
With `C[C@]12C=CC(=O)C=C1CC[C@@H]1[C@@H]2[C@@H](O)C[C@@]2(C)[C@H]1C[C@H]1O[C@@H](c3ccc(CC4(N)CC(F)(F)C4)cc3)O[C@]12C(=O)CO` [INX-SM-35, (6aR,6bS,7S,8aS,8bS,10R,11aR,12aS,12bS)-10-(4-((1-amino-3,3-difluorocyclobutyl)methyl)phenyl)-7-hydroxy-8b-(2-hydroxyacetyl)-6a,8a-dimethyl 1,2,6a,6b,7,8,8a,8b,11a,12,12a,12b-dodecahydro-4H-naphtho[2′,1′:4,5]indeno[1,2-d][1,3]dioxol-4-one], the “inhibition of IL-1β production” value with human PBMC is on record as “inhibit”; in test [1] (setting [2]) it was “dose dependent inhibition in IL-1β production”. Moreover, the “inhibition of IL-6 production” value with human PBMC is given as “inhibit”.
For the compound `C[C@]12C=CC(=O)C=C1CC[C@@H]1[C@@H]2[C@@H](O)C[C@@]2(C)[C@H]1C[C@H]1CN(c3ccc(CC4CC5(CC(N)C5)C4)cc3)C[C@]12C(=O)CO` (stereo partly drawn) [INX-SM-37, (6aR,6bS,7S,8aS,8bS,11aR,12aS,12bS)-10-(4-((6-aminospiro[3.3]heptan-2-yl)methyl)phenyl)-7-hydroxy-8b-(2-hydroxyacetyl)-6a,8a-dimethyl-1,6a,6b,7,8,8a,8b,9,10,11,11a,12,12a,12b-tetradecahydronaphtho[2′,1′:4,5]indeno[1,2-c]pyrrol-4 (2H)-one], the “inhibition of IL-1β production” value in the test on human PBMC is recorded as “weakly inhibits”. In addition, in test [1], the “potency of free payloads (conclusions)” value is recorded as “lowest potency among the R stereoisomers of the series”. The “inhibition of IL-1β” value in test [1] (Experiment 11: free payloads 1000-0.15 nM) was “weakly inhibits IL-1β”.
